Substitutions are numbered along the chain they refer to.
Key:
[1] = test system: T1, Dihydrofolate reductase (Escherichia coli), P0ABQ4 [T46N]
T1 sequence (whole entry): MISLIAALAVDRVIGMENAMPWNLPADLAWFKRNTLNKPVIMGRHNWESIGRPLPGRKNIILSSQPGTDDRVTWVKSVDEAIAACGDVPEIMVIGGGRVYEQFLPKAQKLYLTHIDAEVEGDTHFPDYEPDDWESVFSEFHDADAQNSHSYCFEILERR

[2] = test system: T2, Dihydrofolate reductase (Escherichia coli), P0ABQ4 [T46S]
T2 sequence (whole entry): T1 sequence (whole entry) with N46S

[3] = test system: T3, Dihydrofolate reductase (Escherichia coli), P0ABQ4 [T46A]
T3 sequence (whole entry): T1 sequence (whole entry) with N46A

[4] = biological target: T4, Dihydrofolate reductase (Escherichia coli) (UniProt P0ABQ4)
T4 sequence (whole entry): T1 sequence (whole entry) with N46T
Description: Dissociation rate constant of compound for wild type Escherichia coli dihydrofolate reductase

[5] = biological target: T4, Dihydrofolate reductase (Escherichia coli); remark: listed apart in the source
Description: Rate of hydride transfer (E-N) of compound for wild type Escherichia coli dihydrofolate reductase

Rate of hydride transfer [5] [s⁻¹]	Compound	k off [1] [s⁻¹]	k off [2] [s⁻¹]	k off [3] [s⁻¹]	k off [4] [s⁻¹]
	NC(=O)c1ccc[n+]([C@H]2O[C@@H](COP(=O)([O-])OP(=O)(O)OC[C@H]3O[C@@H](n4cnc5c(N)ncnc54)[C@H](OP(=O)(O)O)[C@@H]3O)[C@H](O)[C@@H]2O)c1	253	230	274	200
	NC(=O)c1ccc[n+]([C@@H]2O[C@H](COP(=O)([O-])OP(=O)(O)OC[C@H]3O[C@@H](n4cnc5c(N)ncnc54)[C@H](OP(=O)(O)O)[C@@H]3O)[C@@H](O)[C@H]2O)c1	56	60	28	3.5
	Nc1nc(=O)c2c([nH]1)NCC(CNc1ccc(C(=O)N[C@@H](CCC(=O)O)C(=O)O)cc1)=N2				22
950	Nc1nc(O)c2c(n1)NCC(CNc1ccc(C(=O)N[C@@H](CCC(=O)O)C(=O)O)cc1)N2 (stereo not given in full)				

From ChEMBL document CHEMBL1125508
